Measurements as given in patent US20110212053A1, “PHOSPHATIDYLINOSITOL 3 KINASE INHIBITORS” (priority 2008, published 2011).

Biological target: PDGFRα(D842V) (Homo sapiens, UniProt P16234, D842V)
Test: Radiometric HotSpot kinase assay, PDGFRα(D842V)
Assay type: biochemical
Experimental: Kinase Profiling: The inhibitory activity of the PI3K inhibitor compounds of the invention against 250 protein kinases was determined via the radiometric HotSpot Kinase Profiling (Reaction Biology Corporation, Malvern, Pa.). Compounds were profiled at a final concentration of 1 μM compound against recombinant protein kinases in the presence of 10 μM ATP and data were expressed as percent inhibition. IC50 and/or percent inhibition at 1 μM compound values were determined for select compounds against a subset of kinases (MELK, MNK1, MNK2, mTOR, PIM-1. TRKC, and PDGFRα(D842V)).
Compounds of the invention were assayed against the select kinases using the KinaseGLO assay (MELK) or the radiometric assay (PIM, TRKC, PDGFRα(D842V), MNK1 and mTOR). IC50 values were determined using 8-10 point half-log dose dilutions and calculated via nonlinear regression analysis using Graphpad Prism data analysis software.

Chain of PDGFRα(D842V) (P16234 24-1089 D842V): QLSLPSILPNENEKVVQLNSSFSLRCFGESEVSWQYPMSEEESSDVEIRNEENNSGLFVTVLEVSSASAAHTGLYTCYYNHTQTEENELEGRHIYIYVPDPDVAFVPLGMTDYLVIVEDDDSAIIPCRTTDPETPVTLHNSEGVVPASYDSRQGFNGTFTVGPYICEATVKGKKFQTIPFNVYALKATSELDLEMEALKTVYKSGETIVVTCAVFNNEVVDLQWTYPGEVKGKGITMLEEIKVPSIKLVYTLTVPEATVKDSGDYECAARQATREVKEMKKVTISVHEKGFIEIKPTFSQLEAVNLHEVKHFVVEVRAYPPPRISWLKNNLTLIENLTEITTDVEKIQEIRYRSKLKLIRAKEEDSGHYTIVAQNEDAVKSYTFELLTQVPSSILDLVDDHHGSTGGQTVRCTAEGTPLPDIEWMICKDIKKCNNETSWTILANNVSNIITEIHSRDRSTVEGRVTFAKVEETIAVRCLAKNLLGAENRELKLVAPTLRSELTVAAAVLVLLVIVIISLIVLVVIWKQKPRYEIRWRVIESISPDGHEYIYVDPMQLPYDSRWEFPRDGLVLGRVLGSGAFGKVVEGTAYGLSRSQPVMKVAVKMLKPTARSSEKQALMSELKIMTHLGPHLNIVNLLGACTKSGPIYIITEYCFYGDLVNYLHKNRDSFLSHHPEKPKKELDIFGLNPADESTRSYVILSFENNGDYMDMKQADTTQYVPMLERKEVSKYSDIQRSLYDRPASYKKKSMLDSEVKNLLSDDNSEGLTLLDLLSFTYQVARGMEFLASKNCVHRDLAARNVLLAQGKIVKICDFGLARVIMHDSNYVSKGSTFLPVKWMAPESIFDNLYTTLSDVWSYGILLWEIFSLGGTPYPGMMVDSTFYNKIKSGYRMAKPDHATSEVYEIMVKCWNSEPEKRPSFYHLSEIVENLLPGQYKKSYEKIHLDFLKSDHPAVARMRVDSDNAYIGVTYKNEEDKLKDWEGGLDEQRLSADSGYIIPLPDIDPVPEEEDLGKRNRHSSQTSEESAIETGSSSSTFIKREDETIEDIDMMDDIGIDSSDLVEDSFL

CC(C)(C#N)c1ccc(-c2n[nH]c3cnc4ccc(-c5ccc6ncccc6c5)cc4c23)cc1 [Compound 1110, 2-methyl-2-(4-(8-(quinolin-6-yl)-3H-pyrazolo[3,4-c]quinolin-1-yl)phenyl)propanenitrile]
IC50: > 100 nM
